Reference: US7303876B2 (Applera Corporation, priority 2000, dated 2007)

What was measured:
[1] = Solubility of 1% cationic surfactants in 5M chaotropic salt solutions containing 2% Tween 20; settings: 5M chaotropic salts, 2% Tween 20
Text: The solubilities of several cationic surfactants were examined in different chaotropic salt solutions. The cationic surfactants examined were cetyltrimethylammonium bromide (CTAB), cetyltrimethylammonium chloride (CTACl), tetradecyltrimethylammonium bromide (TTAB), tetradecyltrimethylammonium chloride (TTACl), dodecyltrimethylammonium bromide (DTAB), dodecyltrimethylammonium (DTACl), dodecylethyidimethylammonium bromide (DEDTAB), decyltrimethylammonium bromide (D10TAB), and dodecyltriphenylphosphonium bromide (DTPB). Each of the cationic surfactants tested was presented in a 1% concentration. Each of the cationic surfactants was examined in a 5M solution of one of the chaotropic salts containing 2% Tween 20. Each cationic surfactant and salt combination was tested at pH 6 (50 mM MES), pH 8 (50 mM Tris-HCl), and pH 10 (50 mM AMP).

[2] = test system: Liver tissue; experiment: Liver tissue disaggregation by 1% surfactant with or without Proteinase K at 60° C.; settings: 60° C., 1% surfactant
Experimental: To evaluate the ability of various cationic surfactants to increase the digestion of tissue by Proteinase K, liver slices were digested using reaction compositions including one of the sixteen surfactants (shown in Table 4), both with and without Proteinase K. The reducing agent dithiothreitol (DTT) was included to evaluate the effect of reducing conditions on tissue digestion. […] One of the sixteen surfactants was added to one pair of tubes to yield a final concentration of 1% surfactant. The seventeenth pair of tubes served as non-surfactant controls. One milligram (mg) of Proteinase K was added to one tube of each of the seventeen pairs.
PK=presence or absence of Proteinase K in the reaction composition; Y=Proteinase K was present; N=Proteinase K was not present in the reaction composition.

[3] = test system: Calf thymus DNA; experiment: Effect of DTAB on DNA recovery when added before, during, and after DNA binding to GF/B; settings: pretreatment with 5M salt with 1% DTAB (D+) versus without (D−)
Experimental: The inhibitory effect of the cationic surfactant, DTAB, was further examined. DTAB was introduced at various points of the purification reaction, before DNA binding, during binding, or after DNA binding has occurred on the solid phase. DNA binding and purification procedures were carried out using GF/B glass fiber filters (in a 96-well format) on the ABI PRISM 6100.
In set A, the GF/B membrane was pretreated with 100 μl of liquid lacking (A−) or containing (A+) 1% DTAB. Calf thymus DNA (8 μg) was then bound in 800 μL of 50 mM MES, pH 6.0, 20 mM EDTA, and 5 M salt (either NaBr or GUSCN).
In set B, the membranes were not prewashed. Calf thymus DNA (8 μg) was bound to GF/B glass fiber filters in 800 μl of 50 mM MES, pH, 6.0, 20 mM EDTA, and 5 M salt (either NaBr or GuSCN). Following binding, the membranes were washed in 50 mM MES, pH 6.0, 20 mM EDTA and 5 M salt (either NaBr or GuSCN) either lacking (B−) or containing (B+) 1% DTAB.
In set C, the membranes were not prewashed. Calf thymus DNA (8 μg) was bound to GF/B glass fiber filters in 800 μl of 50 mM MES, pH 6.0, 20 mM EDTA, and 5 M salt (either NaBr or GUSCN) either lacking (C−) or containing (C+) 1% DTAB.
In set D, the GF/B membrane was pretreated with 100 μl of 5 M salt (either NaBr or GuSCN) lacking (A−) or containing (A+) 1% DTAB. […]

[4] = test system: Calf thymus genomic DNA; experiment: Reversal by Tween 20 of DTAB inhibition of DNA recovery from GF/B
Experimental: Having identified the cationic surfactant as a major component inhibiting DNA recovery, the ability of a nonionic surfactant to reverse the inhibitory effect was examined. Calf thymus genomic DNA (8 μg) was bound to the glass fiber GF/B membrane in the presence of 0%, 1% and 4% dodecyltrimethylammonium bromide (DTAB) with increasing concentrations of Tween 20.
The binding buffer also contained 5M GuSCN, 20 mM EDTA, and 50 mM MES (pH 6.0). DNA was first eluted with 200 μl of TE followed by a separate elution with 100 μl of 0.1N NaOH. All binding and elution steps were done at ambient temperature.

[5] = test system: cationic surfactant: nucleic acid precipitate; experiment: Solubilizing the cationic surfactant: nucleic acid precipitate (calf thymus DNA + 1% CTAB); settings: Calf thymus DNA 700 μg/ml, 100 mM Tris, pH 8, additive at final concentration
Experimental: Calf thymus DNA (Sigma; 700 μg/ml lightly sheared using an 18 gauge hypodermic needle) was mixed with 1% CTAB in 100 mM Tris, pH 8 to form a reaction composition.

[6] = Solubility of surfactants (0.5% Sarkosyl, LDS, SDS, CTAB; 5.0% others) in salt solutions
Experimental: In certain instances, the solubility of detergents in high salt may relate to on the composition of the salt and the detergent itself. A mixing experiment was performed to examine the solubility of a variety of anionic, cationic, and nonionic surfactants in different salt compositions. […] The salt solutions contained Lil, Nal, KI, Rbl, Csl , GuSCN, GuHCl, or NaClO4, at pH 6.0 or 10.0. […] The solubility of the surfactants was scored as either soluble or insoluble. The solubility of the surfactant in the salt solution was determined initially by visual observations for cloudiness or precipitate formation. The resulting solutions were also centrifuged to verify the absence of a precipitate by the absence of a precipitate pellet.

Compound | relative solubility in chaotropic salt solutions (in words) [1] | Tissue Disaggregation ([2]; Fifteen Minutes Incubation, Proteinase K not present (N)) | Tissue Disaggregation ([2]; Fifteen Minutes Incubation, Proteinase K present (Y)) | Tissue Disaggregation ([2]; Fifty-Two Minutes Incubation, Proteinase K not present (N)) | Tissue Disaggregation ([2]; Fifty-Two Minutes Incubation, Proteinase K present (Y)) | subsequent binding of nucleic acid to GF/B [3] | concentration at which the amount of DNA recovered increased significantly ([4]; 0% DTAB, FIG. 21) | concentration that substantially blocked the inhibitory effect of the cationic surfactant ([4]; 1% DTAB, FIG. 22) | concentration that substantially blocked the inhibitory effect of the cationic surfactant ([4]; 4% DTAB, FIG. 23) | Result (solubilization of the CTAB: nucleic acid precipitate) [5] | Solubility of surfactant ([6]; 4 M GuHCl, Urea, pH 6.0) | Solubility of surfactant ([6]; 4 M GuHCl, Urea, pH 10.0) | Solubility of surfactant ([6]; 4 M KI, Urea, pH 6.0) | Solubility of surfactant ([6]; 4 M KI, Urea, pH 10.0) | Solubility of surfactant ([6]; 6 M GuHCl, pH 6.0) | Solubility of surfactant ([6]; 6 M GuHCl, pH 10.0) | Solubility of surfactant ([6]; 6 M NaI, pH 10.0)
CCCCCCCCCCCC[N+](C)(C)C.[Br-] [DTAB, dodecyltrimethylammonium bromide] | more soluble than larger surfactants | 0 | 2 | 0 | 3 | did not appear to influence subsequent binding of nucleic acid |  |  |  |  |  |  |  |  |  |  | 
polyoxyethylenesorbitan monolaurate [Tween 20] |  |  |  |  |  |  | at least 1% | at least 2% | at least 4% | neither NaCl nor Tween 20, used alone, solubilized the precipitate | S | S | S | S | S | S | S
